# Columns and labels:
# [1] = n-Octanol/water partition coefficient, shake flask method; assay type: physicochemical
# Procedure: Both hydrophilicity and lipophilicity studies were performed to determine the tumour-inhibiting potential of the metal complexes. These complexes were highly soluble in DMSO and moderately soluble in H2O, MeOH, EtOH and CH3CN. […] The lipophilicity of these complexes was determined by performing an n-octanol/water partition coefficient (log Po/w, where Po/w = the octanol/water partition coefficient) study using the shake flask method (Table 1).[24] The experimental log Po/w values of these complexes were determined to be in the range of 0.27–0.34 (Table 1). […] This change in the electrolytic behaviour of the complexes from 1 : 1 to 1 : 2 can be attributed to the dissociation of the Ir–Cl bond and subsequent aquation of the complexes. […]
# n-Octanol–water partition coefficient (log P o/w)9
# The log Po/w of the iridium complexes were adhering to shake flask method using the previously published procedure. A known amount of each complex (IrL1-IrL5) was suspended in water (pre-saturated with n-octanol) and shaken for 48 h on an orbital shaker.
# To allow the phase separation, the solution was centrifuged for 10 min at 3000 rpm. To obtain the partition coefficient, different ratios (0.5: 1, 1: 1, and 2: 1) of the saturated solutions were shaken with pre-saturated n-octanol for 20 min on an orbital shaker and followed the same procedure. Aliquots of the aqueous and octanol layers were pipetted out separately and the absorbances were measured with UV-Vis spectrophotometer using proper dilution. Each set was performed in triplicate, concentration of the substances in each layer was calculated using the respective molar extinction coefficients and the partition coefficient (log P o/w) values were obtained from the ratio.
# CT-DNA [2] = experiment: Ethidium bromide displacement (fluorescence quenching) assay; assay type: binding, calf
# Procedure: The competitive binding of compounds IrL1 to CT-DNA was studied via fluorescence spectroscopy using ethidium bromide (EtBr) as the fluorophore. […] Intrinsic binding constant (Kb), Stern–Volmer quenching constant (Ksv) and apparent binding constant (Kapp) were highlighted in Table 2. […]
# Ethidium bromide displacement assay
# The ethidium bromide (EtBr) displacement assay was carried out to illustrate the mode of binding between the potent compounds with DNA.4 The apparent binding constant (K app) of the complexe IrL1 to Ct-DNA were calculated using ethidium bromide (EtBr) as a spectral probe in 5 mM Tris-HCl buffer (pH 7.4). The values of the apparent binding constant (K app) were obtained by using the equation (iii):
# Kapp × [Complex]50 = kEtBr × [EtBr]⋯⋯⋯(iii)
# Where KEtBr is the EtBr binding constant (K EtBr = 1.0 x 107 M-1), and [EtBr] = 8 x 10^-6 M.
# Stern-Volmer equation was followed for quantitative determination of the Stern-Volmer quenching constant (K SV).5 Origin (8.5) software was used to plot the fluorescence data to obtain linear plot of I0/I vs. [complex]. The value of KSV was calculated from the following […]
# Where I0 = fluorescence intensity in absence of complex and I = fluorescence intensities in presence of complex of concentration [Q].
# We are acquainted with the fact that serum albumin proteins are the main component. […]
# CT-DNA [3] = experiment: DNA binding by UV-visible absorption titration; parameters: species or system calf; details: for Change in absorbance: on addition of CT-DNA
# Procedure: To design effective chemotherapeutic drugs, it is essential to explore the interactions of metal complexes with DNA. […] DNA base pairs such as purine (adenine and guanine) and pyrimidine (cytosine and thymine) analogues are responsible for electronic transitions. Upon the addition of CT-DNA in increasing concentration from 5 μM to 60 μM, we observed a hyperchromic shift in π–π* region and hypochromic shift at the MLCT region resulting in the appearance of an isosbestic point, which indicates the prevalence of […] interaction of the complex with DNA together with the intercalative mode of interaction (Fig. 6).
# Electronic absorption spectroscopy was used to study the binding capacity of the complexes with calf-thymus DNA (Ct-DNA) and competitive binding assay as studied using ethidium bromide (EtBr) as quencher by fluorescence spectroscopy.
# DNA binding assay was carried out by using complexes IrL5 in Tris-HCl buffer (5 mM Tris-HCl in water, pH 7.4) in aqueous medium. The concentration of Ct-DNA was calculated from its absorbance intensity at 260 nm and its known molar absorption coefficient value of 6600 M-1cm-1. Equal amount of DNA was added in both the sample and reference in cuvettes.
# Titration was carried out by increasing concentration of CT-DNA. On the eve of each measurement, sample was equilibrated with CT-DNA for about 5 min and then absorbance of the complex was measured. The intrinsic DNA binding constant (K b) was calculated using the […]
# [DNA] = [DNA] + 1 L L (i) […]
# Where [DNA] is the concentration of DNA in the base pairs, εa is the apparent extinction coefficient observed for the complex, εf corresponds to the extinction coefficient of the complex in its free form, and εb refers to the extinction coefficient of the complex when fully bound to DNA. The resultant data were plotted using Origin Lab, version 8.5 to obtain the [DNA]/(ε a-εf) vs. [DNA] linear plot. The ratio of the slope to intercept from the linear fit gave the values of the intrinsic binding constants ( Kb).
# UV and Fluorescence study […]
# φ = φR × I × OD × η ⋯⋯⋯(ii)
substance,measurement,setting,value
"[Iridium(III)-Cp*-2-(naphthalen-1-yl)-1H-imidazo[4,5-f][1,10]phenanthroline]PF6 [IrL1]",log P (n-octanol/water partition coefficient),[1],0.27 ± 0.07
same,"Ksv, Stern–Volmer quenching constant",CT-DNA [2]; EtBr-bound CT-DNA,22000 M⁻¹
same,"Kapp, apparent DNA binding constant",CT-DNA [2]; competitive displacement of EtBr,2500 M⁻¹
same,Δε (% change in hypochromism or hyperchromism),"CT-DNA [3]; λmax 250 nm, hyperchromism",60%
same,Change in absorbance,CT-DNA [3]; λmax 250 nm,Hyperchromism
same,Δε (% change in hypochromism or hyperchromism),"CT-DNA [3]; λmax 305 nm, hypochromism",25%
same,Change in absorbance,CT-DNA [3]; λmax 305 nm,Hypochromism

# Reference: PMC9016803, “Mitochondria-targeted half-sandwich iridium(III)-Cp*-arylimidazophenanthroline complexes as antiproliferative and bioimaging agents against triple negative breast cancer cells MDA-MB-468” (RSC Advances, 2022)
